Data set [1] can be described thus: Microsomal stability assay, human liver microsomes. Format: in vitro ADME. The settings on record: 10 μM test compound, 0.5 mg/mL protein, 37° C. How it is done: (§1) 4 μL of 1 mM test compound at a final concentration of 10 μM dissolved in DMSO/ACN/Methanol/Ethanol was preincubated at 37° C. for 5 minutes on a digital heating shaking dry bath (Fischer scientific, Pittsburgh, Pa.) in a mixture containing 282 μL of water, 80 μL of phosphate buffer (0.5 M, pH 7.4), 20 μL of NADPH Regenerating System Solution A (BD Bioscience, San Jose, Calif.) and 4 μL of NADPH Regenerating System Solution B (BD Bioscience, San Jose, Calif.) in a total volume of 391.2 μL. Following preincubation, the reaction was initiated by addition of 8.8 μL of either human liver microsomes (BD Gentest, San Jose, Calif.), mouse liver microsomes (Life technologies, Rockford, Ill.), at a protein concentration of 0.5 mg/mL. Aliquots of 50 μL were taken at time intervals of 0 (without microsomes), 10, 20, 30, 40, 50 and 60 minutes. Each aliquot was added to 100 μL of cold acetonitrile solution containing 1 μM/2 μM internal standard. This was followed by sonication for 10 seconds and centrifugation at 10,000 rpm for 5 minutes. 100 μL of the supernatant was transferred into Spin-X HPLC filter tubes (Corning Incorporated, NY) and centrifuged at 13,000 rpm for 5 minutes. […] The ratio of the peak areas of the internal standard and test compound was calculated for every time point and the natural log of the ratio were plotted against time to determine the linear slope (k). […] All experiments were repeated three times in duplicates.
(In general: Microsomes from liver hold many membrane-bound enzymes, among them those of drug oxidation.)

A short description of data set [2]: Microsomal stability assay, mouse liver microsomes. Format: in vitro ADME. Particulars: 10 μM test compound, 0.5 mg/mL protein, 37° C. How it is done:
as §1

The test system of data set [3] is αxβx, αxβ3γ2 and αβδ receptors. Briefly: Electrophysiology in Xenopus oocytes, functional screening over all tested receptors. Format: cell-based, rat. How it is done: Mature female Xenopus laevis (Nasco, Fort Atkinson, Wis., USA) were anaesthetized in a bath of ice-cold 0.17% Tricain (Ethyl-m-aminobenzoat, Sigma-Aldrich, St. Louis, Mo., USA) before decapitation and transfer of the frog's ovary to ND96 medium (96 mM NaCl, 2 mM KCl, 1 mM MgCl2, 5 mM HEPES; pH 7.5). Following incubation in 1 mg/mL collagenase (Sigma-Aldrich, St. Louis, Mo., USA) for 30 min, stage 5 to 6 oocytes were singled out of the ovary and defolliculated using a platinum wire loop. Oocytes were stored and incubated at 18° C. in NDE medium (96 mM NaCl, 2 mM KCl, 1 mM MgCl2, 5 mM HEPES, 1.8 mM CaCl2; pH 7.5) that was supplemented with 100 U per mL-1 penicillin, 100 μg per mL-1 streptomycin and 2.5 mM pyruvate. Oocytes were injected with an aqueous solution of mRNA. A total of 2.5 ng of mRNA per oocyte was injected. […] Maximum currents measured in mRNA injected oocytes were in the microampere range for all receptor subtypes. […] Data were digitized using a Digidata 1322A or 1550 data acquisition system (Axon Instruments, Union City, Calif., USA), recorded using Clampex 10.5 software (Molecular Devices, Sunnyvale, Calif., USA), and analyzed using Clampfit 10.5 and GraphPad Prism 6.0 (La Jolla, Calif., USA) software. […]
For selected test compounds full dose response curves were recorded in α1-6β3γ2 receptors. […]

Data set [4] concerns GABA-A receptors, including α6 GABA-ARs. Briefly: Modulation of GABA-A receptors by constituent of Cl leaves.
Data set [5] can be described thus: Half-life in liver microsomes (Example 4). The settings on record: rat and human liver microsomes, species of the value not stated. Format: in vitro ADME. From the text:
Metabolic pathways that may disrupt the activity of compounds with aryl methoxy groups were investigated.

Data set [6] concerns METH-impaired PPI in C57/B6 mice. The data set is described as follows: PPI test, methamphetamine-impaired prepulse inhibition. Format: in vivo, mouse. The settings on record: mice; compound 10 mg/kg i.p. 15 min before METH 2 mg/kg i.p.; listed as 1-29. How it is done: All animal experiments conducted at NTU were approved by the Institutional Animal Care and Use Committee of College of Medicine, National Taiwan University. C57/B6 (8-10 weeks) mice were used for the PPI test and Wistar rats (8-9 weeks) were used in the migraine model. Animals were housed in an animal room with a 12-h light/12-h dark cycle and free access to food and water.
The PPI test was conducted with a PPI apparatus (SR-LAB, San Diego Instruments, San Diego, Calif.) consisting of a startle chamber equipped with various programming acoustic stimulations. After acclimation, the mouse was gently placed in the startle chamber for a 4 min acclimation period with a background noise of 65 dB, which continued throughout the whole PPI test session. One PPI test session consisted of 4 types of startle trials, including the trial with the startle pulse (115 dB) alone (PULSEALONE; 115 dB, 20 ms), two trials with the startle pulse paired with 71 and 77 dB prepulses, respectively (PREPULSE+PULSE; 71 dB+115 dB and 77 dB+115 dB), and the trial without stimulus (NOSTIM; background 65 dB only). A test session started and ended, respectively, with four NOSTIM trials and four PULSEALONE trials. In between, each of the four types of trials was presented 14 times randomly, that is, 56 trials were given in a test session. The intertrial interval was given randomly from 5 to 20 s. In the PREPULSE+PULSE trial, a 71 or 77 dB prepulse was given 120 ms before the 115 dBpulse. The magnitude of PPI (PPI %) was determined, after summarizing the startle responses in PULSEALONE and PREPULSE+PULSE trials, according to the equation (PULSEALON−PREPULSE+PULSE)/PULSEALONE×100%. The tested compound or vehicle was given to the animal for 15 min, followed by methamphetamine (2 mg/kg). The PPI test was conducted 10 min after injection of methamphetamine. Data were expressed as the mean±S.E.M. Statistical comparisons among groups were analyzed by ANOVA with Tukey post hoc test, and differences between groups were analyzed by Student's t-test. Two-way ANOVA with Bonferroni's post hoc test was used to analyze differences in the time courses of locomotor activity among groups. Differences were considered significant if P<0.05.
Methamphetamine and apomorphine were dissolved in normal saline for i.p. And s.c. Injections, respectively. Tested compounds and haloperidol, when given by i.p. Injection, were dissolved in a vehicle containing 20% dmso, 20% Cremophor® el (polyoxyethylene castor, sigma-aldrich) and 60% normal saline. Furosemide was dissolved (20 nmole/μL) in dimethylsulfoxide for intra-cerebellar microinjection the i.p. or s.c. Injection volume was 10 mL/kg.

The nature of data set [7]: Solubility of compounds in DI water. Format: physicochemical. Particulars: thermodynamic from solid; 2 mg in 2 mL DI water, sonicated at 60° C. for 2 hours, cooled to room temperature, filtered. The method, then: The solubility of the compounds was examined by sonicating 2 mg of each respective compound in 2 mL of DI water at 60° C. for 2 hours. Solutions were cooled to room temperature and then filtered using a syringe filter. The resultant solutions were injected into a mass spectrometer using a SIM method, calibrated to the respective retention times and mass units of each compound. Calibration curves using standard solutions (5 data points) of each compound dissolved in methanol were used to calculate the unknown aqueous concentrations of each compound.

The subject of data set [8] is HEPG2 cell line. Briefly: Cytotoxicity study, CellTiter-Glo cell viability. Format: cell-based, Human. The settings on record: HEPG2, 48 hours incubation. How it is done:
Reagents and Instrumentation: Human liver hepatocellular carcinoma (HEPG2) cell line was purchased (ATCC) and cultured in 75 cm2 flasks (CellStar). Cells were grown in DMEM/High Glucose (Hyclone, #SH3024301) media to which non-essential amino acids (Hyclone, #SH30238.01), 10 mM HEPES (Hyclone, #SH302237.01), 5×106 units of penicillin and streptomycin (Hyclone, #SV30010), and 10% of heat inactivated fetal bovine serum (Gibco, #10082147) were added. Cells were harvested using 0.05% Trypsin (Hyclone, #SH3023601), which disrupts the cell monolayer and proteolytically cleaves the bonds between the cells and flask. The cell viability assay was evaluated using CellTiter-Glo™ Luminescent Cell Viability Assay Kit (Promega, Madison, Wis.) which contains luciferase and all its substrate except ATP. The controls for the cytotoxicity assay used were (E)-10-(bromotriphenylphosphoranyl)decyl 4-(4-(tert-butyl)phenyl)-4-oxobut-2-enoate (400 μM in DMSO, positive control) and DMSO (negative control). Cell culture was performed in a Baker Company Class II Biological Safety Cabinet. All luminescence readings were performed on a Tecan Infinite M1000 plate reader. Small volume transfers were performed on the Tecan Freedom EVO liquid handling system with a 100 nL pin tool transfer (V&P Scientific). Serial dilutions were done in 96-well polypropylene plates (Corning, #3365) and assays were conducted in 384-well white optical bottom plates.
Luminescence-Based VDR-Mediated Transcription Assay Protocol: After 48 hours of incubation at 37 °C with 5% CO2, the cells were harvested with 4 mL of 0.05% Trypsin, added to 10 mL of the assay buffer, DMEM/High Modified buffer without phenol red, and spun down for 3 minutes at 1000 rpm. The media was removed and cells were resuspended in the DMEM assay media. To each well, 40 μL of cells were added to yield a final concentration of 15,000 cells per well. The plates were then spun down for 2 minutes at 1000 rpm. After 2 hours, plated cells were treated with 100 nL×4 of small molecules and controls which were added using the pin tool. After 48 hours of incubation at 37 °C with 5% CO2, 20 μL of Cell Titer-Glo™ Luminescence Assay Kit (cytotoxicity assay) were added and luminescence was read. Controls were measured within each plate to determine the z′ factor (Equation 1) and to enable data normalization. Three independent experiments were performed in quadruplicate and data was analyzed using nonlinear regression with variable slope (GraphPrism, Equation 2). The luminescence intensity of control (untreated) cells was taken as 100% viability, and the relative cell viability compared to control was calculated. Data are presented as the means±SEM of a series of three experiments.

≈ marks a conversion by molar mass, not a printed value. Entries after “also recorded” stand apart in the source; their conditions may differ.

The half-life is the time needed for the level to fall by half in the phase considered. The solubility is how much of the substance goes into solution per volume.

`[2H]C([2H])([2H])Oc1ccccc1-n1nc2c3cc(Cl)ccc3[nH]cc-2c1=O` [DK-I-87-1, 8-Chloro-2-(2-methoxy-d3-phenyl)-2,5-dihydro-3H-pyrazolo[4,3-c]quinolin-3-one]: the “% left after 1 hr. (HLM)” value in data set [1] came out at 94.7 ± 0.07%. Also, in data set [2], the “% left after 1 hr. (MLM)” value is 94.91 ± 0.10% and the “Half-life (min) (MLM)” value is on record as 993 ± 189 min. Also, the “activity in all tested receptors” value in data set [3] was “inactive in all receptors that were tested so far; also recorded: essentially inactive in all tested receptors”.

With `COc1ccccc1-n1nc2c3cc(Cl)ccc3[nH]cc-2c1=O` [LAU 165, 8-Chloro-2-(2-methoxyphenyl)-2H-pyrazolo[4,3-c]quinolin-3(5H)-one], in data set [3], the “activity in all tested receptors” value was “inactive in all receptors that were tested so far; also recorded: essentially inactive in all tested receptors”.

In the case of `COc1c(O)cc2oc(-c3ccc(O)cc3)cc(=O)c2c1O` [hispidulin], the “modulation of GABA-A receptors” value in data set [4] is recorded as “positive allosteric modulator”.

`[2H]C([2H])([2H])Oc1ccc2c3nn(-c4ccc(OC)cc4)c(=O)c-3c[nH]c2c1` [RV-I-029, 7-Methoxy-d3-2-(4-methoxyphenyl)-2,5-dihydro-3H-pyrazolo[4,3-c]quinolin-3-one]: the “% left after 1 hr. (HLM)” value in data set [1] worked out at 95.35 ± 1%. Besides, the half-life at 10 μM in data set [1] (human, liver microsomes, pH 7.4, read-out: Half-life (min) (HLM)) was 2970 ± 742 min. Further, in data set [2], the “% left after 1 hr. (MLM)” value was determined as 93.17 ± 016% and the “Half-life (min) (MLM)” value is reported as 857.8 ± 235 min. The same compound registered a half-life in data set [5] of over 50 h. For the same compound, the “rescue of METH-impaired PPI” value in data set [6] was “effective”.

As for `[2H]C([2H])([2H])Oc1ccc(-n2nc3c4ccc(OC([2H])([2H])[2H])cc4[nH]cc-3c2=O)cc1` [DK-I-60-3, 7-Methoxy-d3-2-(4-methoxy-d3-phenyl)-2,5-dihydro-3H-pyrazolo[4,3-c]quinolin-3-one], the solubility at 2 h in data set [7] was 16 µg/mL (≈ 48.9 µM). In addition, in data set [8], the “toxicity at 400 μM” value is listed as “non-toxic”. In data set [1], the “% left after 1 hr. (HLM)” value amounted to 91.51 ± 0.18% and the “Half-life (min) (HLM)” value turned out to be 780.73 ± 238 min. Moreover, in data set [2], the “% left after 1 hr. (MLM)” value stood at 93.08 ± 0.19% and the “Half-life (min) (MLM)” value turned out to be 846.85 ± 276 min.

The record behind these values is patent publication US10865203B2, “Ligands selective to alpha 6 subunit-containing GABAA receptors and their methods of use” (UWM Research Foundation, Inc., priority 2015, dated 2020).
